What was measured:
GOX0716 = target: T1, GOX0716 (Gluconobacter oxydans, UniProt Q5FT03); assay: HPLC of E-ascladiol formation by recombinant E. coli cells; format: cell-based, recombinant Escherichia coli; conditions: 10 µg/mL patulin; 500 µM NADPH; 20 mM MES pH 5; 30 °C; 24 h
T1 construct: full-length in pET28a, whole E. coli LOBSTR-BL21 (DE3) cells; not purified; native N-terminus by primer MADHSI

GOX1462 = target: T2, GOX1462 (Gluconobacter oxydans, UniProt Q5FQY5); assay: as above; format: cell-based, Escherichia coli; conditions: 10 µg/mL patulin; 500 µM NADPH; 20 mM MES pH 5; 30 °C; 24 h
T2 construct: full-length in pET28a, whole E. coli LOBSTR-BL21 (DE3) cells; not purified (aggregated); native N-terminus by primer MQYRQLG

GOX0525 = target: T3, GOX0525 (Gluconobacter oxydans, UniProt Q5FTJ3); assay: NADPH oxidation at […] nm, Michaelis-Menten fit; format: biochemical; conditions: read-out: apparent KM; 250 µM NADPH; pH 6.0 (0.1 M Tris, 0.05 M MES, 0.05 M acetic acid); 25 °C
T3 construct: full-length, N-terminal His-tag (pET28a), E. coli LOBSTR-BL21 (DE3), Ni-NTA; about 29 kDa; native N-terminus by primer MTHRVAL

GOX1899 = target: T4, GOX1899 (Gluconobacter oxydans, UniProt Q5FPQ9); assay: NADPH oxidation at […] nm, Michaelis-Menten fit; format: biochemical; conditions: read-out: apparent KM; 250 µM NADPH; pH 6.0 (0.1 M Tris, 0.05 M MES, 0.05 M acetic acid); 25 °C
T4 construct: full-length, N-terminal His-tag (pET28a), E. coli LOBSTR-BL21 (DE3), Ni-NTA; about 29 kDa; native N-terminus by primer MTTDNI
T4 sequence (Q5FPQ9 entry or part of it): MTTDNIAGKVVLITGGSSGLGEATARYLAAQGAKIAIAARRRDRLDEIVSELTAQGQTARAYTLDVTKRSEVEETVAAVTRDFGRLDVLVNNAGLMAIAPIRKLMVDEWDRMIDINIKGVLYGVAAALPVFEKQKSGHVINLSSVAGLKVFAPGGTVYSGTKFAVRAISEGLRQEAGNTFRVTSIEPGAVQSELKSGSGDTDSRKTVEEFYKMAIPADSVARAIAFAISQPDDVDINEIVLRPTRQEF

T3 sequence (Q5FTJ3 entry or part of it): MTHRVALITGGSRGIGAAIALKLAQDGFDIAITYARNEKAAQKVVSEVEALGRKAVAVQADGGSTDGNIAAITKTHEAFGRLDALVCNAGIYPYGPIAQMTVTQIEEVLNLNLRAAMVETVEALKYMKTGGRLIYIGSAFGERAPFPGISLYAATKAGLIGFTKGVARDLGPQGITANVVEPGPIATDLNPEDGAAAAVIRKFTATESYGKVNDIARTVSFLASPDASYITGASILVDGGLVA
T2 sequence (Q5FQY5 entry or part of it): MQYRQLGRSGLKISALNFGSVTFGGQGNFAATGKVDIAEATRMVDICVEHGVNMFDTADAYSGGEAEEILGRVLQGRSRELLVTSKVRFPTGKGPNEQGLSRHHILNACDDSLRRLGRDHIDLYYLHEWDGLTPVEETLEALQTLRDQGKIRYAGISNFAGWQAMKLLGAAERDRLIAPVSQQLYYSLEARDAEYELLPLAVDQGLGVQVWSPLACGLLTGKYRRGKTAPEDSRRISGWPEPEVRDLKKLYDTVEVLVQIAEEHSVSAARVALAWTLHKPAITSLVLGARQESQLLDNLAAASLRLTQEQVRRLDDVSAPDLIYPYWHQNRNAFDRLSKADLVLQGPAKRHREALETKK
T1 sequence (Q5FT03 entry or part of it): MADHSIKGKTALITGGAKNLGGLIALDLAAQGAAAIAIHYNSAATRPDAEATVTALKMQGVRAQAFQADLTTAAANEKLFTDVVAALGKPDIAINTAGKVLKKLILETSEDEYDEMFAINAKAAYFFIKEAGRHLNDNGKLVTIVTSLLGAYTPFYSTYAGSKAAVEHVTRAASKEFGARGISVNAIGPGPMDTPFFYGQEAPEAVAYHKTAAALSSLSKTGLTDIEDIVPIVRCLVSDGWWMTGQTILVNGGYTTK

## O=C1C=C2C(=CCOC2O)O1 (stereo not shown) [patulin, 4-hydroxy-4H-furo [3,2-c]pyran-2(6H)-one]
GOX0716
  HPLC of E-ascladiol formation by recombinant E. coli cells: capable of producing E-ascladiol were those containing GOX0525, GOX1899, GOX1462 and GOX0716
GOX1462
  HPLC of E-ascladiol formation by recombinant E. coli cells: capable of producing E-ascladiol were those containing GOX0525, GOX1899, GOX1462 and GOX0716
GOX0525
  Km: 8.64 ± 0.89 mM
GOX1899
  Km: 7.26 ± 0.54 mM

From paper PMC9323132, “Characterization of Two Dehydrogenases from Gluconobacter oxydans Involved in the Transformation of Patulin to Ascladiol” (Toxins, 2022)
